Measured values from the NIST ThermoML archive (doi:10.1016/j.fluid.2015.03.048).

Key:
[1] = Liquid; for viscosity: 100 kPa, Capillary tube (Ostwald / Ubbelohde) method; for mass density: 101.33 kPa, Pycnometric method
[2] = xn = mol fraction of the nth substance listed; settings: 303.15 K, 100 kPa, Liquid; for viscosity: Capillary tube (Ostwald / Ubbelohde) method; for excess molar volume: Direct dilatometry; for speed of sound: Frequency=3 MHz, Sing-around technique in a fixed-path interferometer; for mass density: Pycnometric method

Clc1ccc(Cl)c(Cl)c1 [1,2,4-trichlorobenzene]
[1], 303.15 K
Settings	mass density [kg/m3]	viscosity [mPa·s]
–	1442.12	1.611

Cc1ccccc1[N+](=O)[O-] [2-nitrotoluene]
[1], 303.15 K
Settings	mass density [kg/m3]	viscosity [mPa·s]
–	1153.24	1.908

CC(=O)N(C)C [N,N-dimethylethanamide]
[1], 303.15 K
Settings	mass density [kg/m3]	viscosity [mPa·s]
–	941.35	0.865

Cc1ccccc1Cl [2-chlorotoluene]
[1], 303.15 K
Settings	mass density [kg/m3]	viscosity [mPa·s]
–	1072.82	0.884

Cc1cccc([N+](=O)[O-])c1 [3-nitrotoluene]
[1], 303.15 K
Settings	mass density [kg/m3]	viscosity [mPa·s]
–	1147.67	1.775

Cc1ccc(Cl)cc1 [4-chlorotoluene]
[1]
Settings	mass density [kg/m3]	viscosity [mPa·s]
298.15 K	1065.14	–
303.15 K	–	0.902

Cc1cccc(Cl)c1 [3-chlorotoluene]
[1]
Settings	mass density [kg/m3]	viscosity [mPa·s]
293.15 K	1072.15	–
303.15 K	–	0.782

Clc1ccccc1Cl [1,2-dichlorobenzene]
[1], 303.15 K
Settings	mass density [kg/m3]	viscosity [mPa·s]
–	1299.2	1.301

Clc1cccc(Cl)c1 [1,3-dichlorobenzene] + CC(=O)N(C)C
[2]
Settings	excess molar volume [m3/mol]	mass density [kg/m3]	speed of sound [m/s]	viscosity [mPa·s]
x2 = 0.0879	–	1248.69	1277	–
x2 = 0.1045	-3e-08	–	–	1.024
x2 = 0.1294	–	1235.21	1284	–
x2 = 0.1525	-4.5e-08	–	–	1.023
x2 = 0.1659	–	1223.28	1290	–
x2 = 0.1941	-5.4e-08	–	–	1.022
x2 = 0.2267	–	1203.33	1301	–
x2 = 0.262	-6.7e-08	–	–	1.021
x2 = 0.2831	–	1184.73	1312	–
x2 = 0.3235	-7.5e-08	–	–	1.02
x2 = 0.3601	–	1159.16	1326	–
x2 = 0.4052	-7.7e-08	–	–	1.019
x2 = 0.42	–	1139.1	1337	–
x2 = 0.4672	-7.3e-08	–	–	1.018
x2 = 0.4742	–	1120.88	1347	–
x2 = 0.522	-6.6e-08	–	–	1.017
x2 = 0.6086	–	1075.37	1372	–
x2 = 0.6531	-4e-08	–	–	1.016
x2 = 0.6847	–	1049.44	1385	–
x2 = 0.7245	-2.5e-08	–	–	1.015
x2 = 0.7295	–	1034.11	1393	–
x2 = 0.7656	-1.4e-08	–	–	1.014
x2 = 0.7721	–	1019.55	1400	–
x2 = 0.804	-7e-09	–	–	1.013
x2 = 0.8389	–	996.66	1413	–
x2 = 0.8631	2e-09	–	–	1.011
x2 = 0.8967	–	969.13	1429	–
x2 = 0.9131	–	–	–	1.007
x2 = 0.969	–	945.84	1437	–
x2 = 0.9743	–	–	–	0.952

Cc1ccc(Cl)cc1 [4-chlorotoluene] + CC(=O)N(C)C
[2]
Settings	excess molar volume [m3/mol]	mass density [kg/m3]	speed of sound [m/s]	viscosity [mPa·s]
x2 = 0.0699	–	1056.58	1286	–
x2 = 0.0876	-6e-09	–	–	0.897
x2 = 0.0969	–	1053.3	1294	–
x2 = 0.1205	-1e-08	–	–	0.895
x2 = 0.1267	–	1049.63	1303	–
x2 = 0.1564	-1.2e-08	–	–	0.893
x2 = 0.1767	–	1043.58	1317	–
x2 = 0.2099	–	1039.44	1326	–
x2 = 0.2145	-1.6e-08	–	–	0.89
x2 = 0.2522	–	1034.25	1339	–
x2 = 0.2534	-1.9e-08	–	–	0.888
x2 = 0.3011	-2.2e-08	–	–	0.886
x2 = 0.3187	–	1026.08	1359	–
x2 = 0.374	-2.6e-08	–	–	0.884
x2 = 0.4342	–	1011.83	1385	–
x2 = 0.4664	–	1007.85	1392	–
x2 = 0.4933	–	1004.51	1397	–
x2 = 0.495	-2.9e-08	–	–	0.882
x2 = 0.5275	-2.9e-08	–	–	0.88
x2 = 0.5443	–	998.18	1403	–
x2 = 0.5543	-2.8e-08	–	–	0.879
x2 = 0.6041	-2.7e-08	–	–	0.878
x2 = 0.6513	–	984.88	1415	–
x2 = 0.7047	-2.2e-08	–	–	0.876
x2 = 0.7148	–	976.97	1420	–
x2 = 0.762	-1.8e-08	–	–	0.874
x2 = 0.7858	–	968.12	1424	–
x2 = 0.8241	-1.4e-08	–	–	0.872
x2 = 0.8524	–	959.81	1425	–
x2 = 0.8806	-1e-08	–	–	0.87

Clc1ccc(Cl)c(Cl)c1 [1,2,4-trichlorobenzene] + CC(=O)N(C)C
[2]
Settings	excess molar volume [m3/mol]	mass density [kg/m3]	speed of sound [m/s]	viscosity [mPa·s]
x2 = 0.0697	–	1407.11	1289	–
x2 = 0.0921	2.1e-08	–	–	1.608
x2 = 0.1026	–	1390.55	1299	–
x2 = 0.1341	3.1e-08	–	–	1.578
x2 = 0.1407	–	1371.4	1308	–
x2 = 0.1758	–	1353.78	1316	–
x2 = 0.1815	4.3e-08	–	–	1.523
x2 = 0.2103	–	1336.46	1325	–
x2 = 0.2241	5.2e-08	–	–	1.474
x2 = 0.2601	–	1311.41	1336	–
x2 = 0.265	6.1e-08	–	–	1.445
x2 = 0.3225	7.4e-08	–	–	1.403
x2 = 0.3592	–	1261.63	1354	–
x2 = 0.4015	–	1240.42	1365	–
x2 = 0.4257	–	1228.27	1368	–
x2 = 0.4315	9.5e-08	–	–	1.383
x2 = 0.476	9.9e-08	–	–	1.353
x2 = 0.4786	–	1201.84	1378	–
x2 = 0.501	1e-07	–	–	1.284
x2 = 0.5539	–	1164.24	1391	–
x2 = 0.5542	9.7e-08	–	–	1.292
x2 = 0.6271	8.8e-08	–	–	1.205
x2 = 0.6383	–	1122.13	1405	–
x2 = 0.705	7.3e-08	–	–	1.197
x2 = 0.7344	–	1074.16	1419	–
x2 = 0.7519	–	1065.39	1420	–
x2 = 0.7892	5.5e-08	–	–	1.152
x2 = 0.8041	5.2e-08	–	–	1.096
x2 = 0.9052	–	988.77	1440	–
x2 = 0.9282	2.2e-08	–	–	1.088

Clc1cccc(Cl)c1 [1,3-dichlorobenzene]
[1], 303.15 K
Settings	mass density [kg/m3]	viscosity [mPa·s]
–	1277.16	1.023
